Paper PMC8026324, “In Vitro Antiplasmodial, Heme Polymerization, and Cytotoxicity of Hydroxyxanthone Derivatives” (Journal of Tropical Medicine, 2021)
Read-outs that look alike come from different tables or passages of the source.

What was measured:
[1] = tested on: formation of β-hematin (heme polymerization); assay: In vitro heme polymerization inhibitory activity (HPIA) assay; type: biochemical
Method: The heme polymerization inhibitory activity (HPIA) was conducted according to Basilico et al.'s modified method. The 100 μL of 1 mM hematin in 0.2 M NaOH was added into a microtube. […] Distilled water was used as a negative control. The 50 μL solution of glacial acetic acid (pH 2.6) was added into the microtube to initiate the polymerization reaction and incubated at a temperature of 37°C for 24 hours. Microtubes were centrifuged at 8000 rpm for 10 minutes and the supernatant was discarded and then washed three times using the 200 μL dimethyl sulfoxide (DMSO).Then, the deposition of the hematin crystal was dissolved with 200 μL of 0.1 M NaOH and 100 μL of solution was added into the 96-well microplate.
Absorbance was read using ELISA reader at λ 405 nm. A standard curve was made to illustrate the relationship between the concentration of hematin and its absorbance. The various concentrations of hematin (250; 125; 62.5; 31.25; 15.6; 7.8; and […]) were used to make the standard curve. The heme polymerization inhibition was expressed as IC50, which is the concentration of testing compounds that can inhibit 50% of the formation of β-hematin. The IC50 value was calculated by probit analysis using SPSS software (IBM Corp., Chicago).

[2] = tested on: Plasmodium falciparum FCR-3 (chloroquine-resistant strain); assay: In vitro antiplasmodial activity assay, microscopic method, strain FCR-3; type: cell-based; conditions: Plasmodium falciparum
Method: (§1) The test of antiplasmodial activity began with the culture of P. falciparum 3D-7 and FCR-3 using the modified Trager and Jensen method. The plasmodium was cultured in human O red blood cells diluted to 3% haematocrit in RPMI 1640 medium complemented with 10% human O serum. The medium was made by adding 10.43 g of powder RPMI 1640, 6 g HEPES, 2 g NaHCO3, 25 mg gentamycin, and sterile distilled water up to 1 L. The medium pH was adjusted so that it reached ±7.2. It was sterilized using a 0.22 μm filter and stored at 4°C. The complete plasmodium culture medium was made by adding human serum with a concentration of 10% in the medium. The plasmodium culture was incubated in candle jar in an incubator with a temperature of 37°C and was observed every 24 hours.
(§2) The plasmodium was synchronized to obtain the ring stage by adding 5% of D-sorbitol. The plasmodium was transferred from culture flask to a conical tube, and then it was centrifuged with a speed of 1000 rpm for 10 minutes. After the supernatant was disposed, the sterile 5% sorbitol was added and incubated for 10 minutes at a temperature of 37°C. The plasmodium suspension was centrifuged again; the supernatant was disposed and the plasmodium was washed by adding culture medium. Then, the plasmodium suspension was centrifuged again, and the supernatant was discarded, resulting in a plasmodium in ring stage only. The parasitemia was calculated from a thin blood preparation. The test used 1% parasitemia at 2% haematocrit in RPMI medium which complemented with 10% human O serum.
(§3) Each testing compound was dissolved in RPMI medium. The testing compound in various concentrations with volume of 100 μL was incorporated into the 96-well microplate, and then 100 μL of Plasmodium suspension was added. Each series of concentrations was replicated three times. The microplate was incubated at a temperature of 37°C for 72 hours. At the end of the incubation, a thin blood smear was made using 10% Giemsa stain and observed under a light microscope at 1000x magnification. The percentage of parasitemia (counting a minimum of 1,000 erythrocytes) was calculated from the preparation of thin blood and then used to calculate the percentage of plasmodium growth inhibition. […] Antiplasmodial activity is expressed as IC50, which is the concentration of a compound that is required for 50% inhibition of plasmodium growth. The IC50 value was calculated by probit analysis using SPSS software (IBM Corp., Chicago). The lower the IC50 value obtained, the greater the antiplasmodial activity.

[3] = tested on: Plasmodium falciparum 3D-7 (chloroquine-sensitive strain); assay: In vitro antiplasmodial activity assay, microscopic method, strain 3D-7; type: cell-based; conditions: Plasmodium falciparum
Method: as §1, §2, §3

[4] = tested on: formation of β-hematin (heme polymerization); conditions: read-out: IC50 of chloroquine for heme polymerization inhibition, reference value; threshold reference value; cited from earlier work
[5] = FCR3, read-out: Growth inhibition of P. falciparum Strain FCR-3
[6] = read-out: Growth inhibition of P. falciparum Strain 3D-7

With `CCN(CC)CCCC(C)Nc1ccnc2cc(Cl)ccc12` (stereo not drawn) [Chloroquine, reference compound] the IC50 ([1]; 24 hours, 37°C, glacial acetic acid pH 2.6) was 1480 µM, the “Inhibition of β-hematin” value ([1]; compound 0.601 mM) was 29.080% and the β-Hematin formed ([1]; compound 0.601 mM) was 77.787 mM. The “Inhibition of β-hematin” value ([1]; compound 1.221 mM) was 47.315%, the β-Hematin formed ([1]; compound 1.221 mM) was 57.787 mM and the “Inhibition of β-hematin” value ([1]; compound 2.423 mM) was 56.379%. For the same compound, the β-Hematin formed ([1]; compound 2.423 mM) was 47.845 mM, the “Inhibition of β-hematin” value ([1]; compound 4.846 mM) was 79.906% and the β-Hematin formed ([1]; compound 4.846 mM) was 22.040 mM. The “Inhibition of β-hematin” value ([1]; compound 9.692 mM) was 88.604%, the β-Hematin formed ([1]; compound 9.692 mM) was 12.500 mM and the IC50 ([2]; FCR3, 72 h, read-out: IC50 on P. falciparum FCR-3) was 0.11 ± 0.052 µM. It also gave an inhibition at 0.008 µM [2, 5] of 18.7 ± 9.23%, an inhibition at 0.016 µM [2, 5] of 78.6 ± 4.51% and an inhibition at 0.023 µM [2, 5] of 79.9 ± 3.86%. The inhibition at 0.029 µM [2, 5] was 82.6 ± 2.94%, the inhibition at 0.037 µM [2, 5] was 84.2 ± 2.45% and the IC50 ([3]; 72 h, read-out: IC50 on P. falciparum 3D-7) was 0.01 ± 0.001 µM. For the same compound, the inhibition at 0.008 µM [3, 6] was 54.4 ± 12.4%, the inhibition at 0.016 µM [3, 6] was 96.4 ± 1.13% and the inhibition at 0.023 µM [3, 6] was 96.6 ± 1.33%. The inhibition at 0.029 µM [3, 6] was 97.49 ± 0.517%, the inhibition at 0.037 µM [3, 6] was 97.77 ± 0.69% and the IC50 [4] was 37500 µM.
